The term IC50 denotes the point on the concentration scale where inhibition reaches its midpoint. The term EC50 denotes the concentration giving half of the maximal effect.

In assay [1] the target is T1, GST-tagged Tnks-2 (873-1166 aa) (Homo sapiens, UniProt Q9H2K2).
T1 construct: GST-tagged Tnks-2 (873-1166 aa, prepared in-house); made in house
Kind of assay: TNKS2 activity ELISA (autoparsylation assay). It is filed as biochemical. On the procedure: (§1) Description of the TNKS1 and TNKS2 ELISA Assay
(§2) Biochemical Activity Testing of TNKS 1 and 2: Activity ELISA (Autoparsylation Assay)
(§3) For analysis of autoparsylation activity of TNKS 1 and 2 an activity ELISA iss performed: In the first step GST tagged TNKS is captured on a Glutathione coated plate. Then the activity assay with biotinylated NAD is performed in the absence/presence of the compounds. During the enzymatic reaction GST tagged TNKS transfers biotinylated ADP-ribose to itself from biotinylated NAD as co-substrate. For the detection streptavidin-HRP conjugate is added that binds to the biotinylated TNKS and is thereby captured to the plates. The amount of biotinylated resp. autoparsylated TNKS is detected with a luminescence substrate for HRP. The level of the luminescence signal correlates directly with the amount of autoparsylated TNKS and therefore with activity of TNKS.
(§4) The activity ELISA is performed in 384 well Glutathione coated microtiter plates (Express capture Glutathione coated plate, Biocat, Heidelberg, Germany). The plates are pre-equilibrated with PBS. Then the plates are incubated with 50 μl 20 ng/well GST-tagged Tnks-1 (1023-1327 aa, prepared in-house), respectively GST-tagged Tnks-2 (873-1166 aa, prepared in-house) in assay buffer (50 mM HEPES, 4 mM Mg-chloride, 0.05% Pluronic F-68, 2 mM DTT, pH 7.7) overnight at 4° C. The plates are washed 3 times with PBS-Tween-20. The wells are blocked by incubation at room temperature for 20 minutes with 50 μl blocking buffer (PBS, 0.05% Tween-20, 0.5% BSA). Afterwards the plates are washed 3 times with PBS-Tween-20. The enzymatic reaction is performed in 50 μl reaction solution (50 mM HEPES, 4 mM Mg-chloride, 0.05% Pluronic F-68, 1.4 mM DTT, 0.5% DMSO, pH 7.7) with 10 μM bio-NAD (Biolog, Life science Inst., Bremen, Germany) as co-substrate in the absence or presence of the test compound (10 dilution concentrations) for 1 hour at 30° C. The reaction is stopped by 3 times washing with PBS-Tween20. For the detection 50 μl of 20 ng/μl Streptavidin, HRP conjugate (MoBiTec, Göttingen, Germany) in PBS/0.05% Tween-20/0.01% BSA are added and the plates are incubated for 30 minutes at room temperature. After three times washing with PBS-Tween-20 50 μl of SuperSignal ELISA Femto Maximum sensitivity substrate solution (ThermoFisherScientific (Pierce), Bonn, Germany) are added. Following a 1 minute incubation at room temperature luminescence signals are measured with an Envision multimode reader (Perkin Elmer LAS Germany GmbH) at 700 nm. The full value used is the inhibitor-free reaction. The pharmacological zero value used is XAV-939 (Tocris) in a final concentration of 5 μM. The inhibitory values (IC50) are determined using either the program Symyx Assay Explorer® or Condosseo® from GeneData.
(ELISA stands for enzyme-linked immunosorbent assay.)

Assay [2] addresses T2, GST-tagged Tankyrase-2 (873-1166 aa) (Homo sapiens, UniProt Q9H2K2).
T2 construct: GST-tagged Tankyrase-2 (873-1166 aa)
In words: Tankyrase 2 autoparsylation HTRF enzyme assay. It is filed as biochemical. The following applies: read-out: IC50 TNKS2 enzyme assay. On the procedure: (§5) Biochemical activity testing of Tankyrase 1 and 2: Autoparsylation assay
(§6) The autoparsylation assay is run in two steps: the enzymatic reaction in which GST-tagged Tankyrase-1, resp Tankyrase-2 transferred biotinylated ADP-ribose to itself from biotinylated NAD as co-substrate and the detection reaction where a time resolved FRET between cryptate labelled anti-GST bound to the GST tag of the enzyme and Xlent® labelled-streptavidin bound the biotin-parsylation residue is analysed. The autoparsylation activity was detectable directly via the increase in HTRF signal.
(§7) The autoparsylation assay is performed as 384-well HTRF® (Cisbio, Codolet, France) assay format in Greiner low volume nb 384-well microtiter plates and is used for high throughput screen. 250 nM GST-tagged Tankyrase-1 (1023-1327 aa), respectively about 250 nM GST-tagged Tankyrase-2 (873-1166 aa) and 5 μM bio-NAD (Biolog, Life science Inst., Bremen, Germany) as co-substrate are incubated in a total volume of 5 μl (50 mM HEPES, 4 mM Mg-chloride, 0.05% Pluronic F-68, 1.4 mM DTT, 0.5% DMSO, pH 7.7) in the absence or presence of the test compound (10 dilution concentrations) for 90 min at 30° C. The reaction is stopped by the addition of 1 μl 50 mM EDTA solution. 2 μl of the detection solution (1.6 μM SA-Xlent® (Cisbio, Codolet, France), 7.4 nM Anti-GST-K® (Eu-labelled anti-GST, Cisbio, Codolet, France) in 50 mM HEPES, 800 mM KF, 0.1% BSA, 20 mM EDTA, 0.1% CHAPS, pH 7.0) are added. After 1 h incubation at room temperature the HTRF is measured with an Envision multimode reader (Perkin Elmer LAS Germany GmbH) at excitation wavelength 340 nm (laser mode) and emission wavelengths 615 nm and 665 nm. The ratio of the emission signals is determined. The full value used is the inhibitor-free reaction. The pharmacological zero value used is XAV-939 (Tocris) in a final concentration of 5 μM. The inhibitory values (IC50) are determined using either the program Symyx Assay Explorer® or Condosseo® from GeneData.
A general note: Time-resolved FRET reads energy transfer from a long-lived donor to a nearby acceptor.

A further assay deals with Tankyrase. Kind of assay: Cellular inhibition of Tankyrase: Axin2 level in DLD1 cells (Luminex). It is filed as cell-based. The conditions noted are these: 24 hours, Axin2 increase, read-out: EC50 [M] TNKS cellular assay. On the procedure: Measurement of Cellular Inhibition of Tankyrase
Since Tankyrases have been described to modulate cellular level of Axin2 (Huang et al., 2009; Nature) the increase of Axin2 level is used as read-out for determination of cellular inhibition of Tankyrases in a Luminex based assay.
Cells of the colon carcinoma cell line DLD1 are plated in 96 well plates with 1.5×10^4 cells per well. Next day, cells are treated with a serial dilution of test compound in seven steps as triplicates with a final DMSO concentration of 0.3%. After 24 hours, cells are lysed in lysis buffer (20 mM Tris/HCl pH 8.0, 150 mM NaCl, 1% NP40, 10% Glycerol) and lysates are cleared by centrifugation through a 96 well filter plate (0.65 μm). Axin2 protein is isolated from cell lysates by incubation with a monoclonal anti-Axin2 antibody (R&D Systems #MAB6078) that is bound to fluorescent carboxybeads. Then, bound Axin2 is specifically detected with a polyclonal anti-Axin2 antibody (Cell Signaling #2151) and an appropriate PE-fluorescent secondary antibody. The amount of isolated Axin2 protein is determined in a Luminex^200 machine (Luminex Corporation) according to the manufacturer's instruction by counting 100 events per well. Inhibition of Tankyrase by test compounds results in higher levels of Axin2 which directly correlates with an increase of detectable fluorescence. As controls cells are treated with solvent alone (neutral control) and with a Tankyrase reference inhibitor IWR-2 (3E-06 M) which refers as control for maximum increase of Axin2. For analysis, the obtained data are normalized against the untreated solvent control and fitted for determination of the EC50 values using the Assay Explorer software (Accelrys).

Assay [3] has as its target T3, GST-tagged Tnks-1 (1023-1327 aa) (Homo sapiens, UniProt O95271).
T3 construct: GST-tagged Tnks-1 (1023-1327 aa, prepared in-house); made in house
Kind of assay: TNKS1 activity ELISA (autoparsylation assay). It is filed as biochemical. Here is the method: as §1, §2, §3, §4

The target in assay [4] is T4, GST-tagged Tankyrase-1 (1023-1327 aa) (Homo sapiens, UniProt O95271).
T4 construct: GST-tagged Tankyrase-1 (1023-1327 aa)
In words: Tankyrase 1 autoparsylation HTRF enzyme assay. It is filed as biochemical. The conditions noted are these: read-out: IC50 TNKS1 enzyme assay. On the procedure:
as §5, §6, §7

SMILES strings stand for the structures. A value given as a limit tells only on which side of the number the result lay.

T4 sequence (O95271 1023-1327): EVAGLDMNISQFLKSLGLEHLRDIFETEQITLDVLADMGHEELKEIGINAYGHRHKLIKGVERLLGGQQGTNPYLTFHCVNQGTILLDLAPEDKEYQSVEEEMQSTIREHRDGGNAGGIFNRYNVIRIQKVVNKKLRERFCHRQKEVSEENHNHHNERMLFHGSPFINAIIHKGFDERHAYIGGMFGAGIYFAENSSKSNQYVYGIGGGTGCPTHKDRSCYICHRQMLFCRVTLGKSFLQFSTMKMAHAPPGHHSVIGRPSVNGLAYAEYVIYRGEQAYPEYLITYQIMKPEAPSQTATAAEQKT
T3 sequence (O95271 1023-1327): as above
T1 sequence (Q9H2K2 873-1166): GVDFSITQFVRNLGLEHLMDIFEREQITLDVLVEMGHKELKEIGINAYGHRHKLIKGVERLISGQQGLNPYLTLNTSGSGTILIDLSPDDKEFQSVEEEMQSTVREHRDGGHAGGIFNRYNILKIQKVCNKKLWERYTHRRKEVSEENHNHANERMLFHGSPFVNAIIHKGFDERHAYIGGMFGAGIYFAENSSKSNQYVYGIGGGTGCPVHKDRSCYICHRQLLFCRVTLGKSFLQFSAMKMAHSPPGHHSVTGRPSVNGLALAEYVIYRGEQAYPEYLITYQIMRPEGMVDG
T2 sequence (Q9H2K2 873-1166): as above

`COc1cccc(N(C)C(=O)N2CCC(C(=O)c3ccccc3)CC2)c1` [Compound A3, 4-benzoyl-piperidine-1-carboxylic acid (3-methoxy-phenyl)-methyl-amide]: the IC50 in assay [1] was under 300 nM; in assay [2], 0.3 to 3 µM; in assay [3], under 300 nM; in assay [4], 300 to 3000 nM. Further, in the assay on Tankyrase, the EC50 lay in the range of 3e-07 to 3e-06 M.
Consider `COc1ccc(N(C)C(=O)N2CCC(C(=O)c3ccc(Cl)cc3)CC2)cc1` [Compound A9, 4-(4-chloro-benzoyl)-piperidine-1-carboxylic acid (4-methoxy-phenyl)-methylamide], for which the IC50 in assay [1] is under 300 nM; in assay [2], 0.3 to 3 µM; in assay [3], under 300 nM; in assay [4], under 300 nM. Further, the EC50 in the assay with Tankyrase lay within 3e-07 to 3e-06 M.
For `CN(C(=O)N1CCC(C(=O)c2ccccc2)CC1)c1cccc(C#N)c1` [Compound A10, 4-benzoyl-piperidine-1-carboxylic acid (3-cyano-phenyl)-methyl-amide], the IC50 in assay [1] is under 300 nM; in assay [2], 3 to 50 µM; in assay [3], 300 to 3000 nM; in assay [4], 300 to 3000 nM. Also, the EC50 in the assay on Tankyrase lay within 3e-06 to 5e-05 M.
As to `CN(C(=O)N1CCC(C(=O)c2ccccc2)CC1)c1ccc(C#N)cc1` [Compound A11, 4-benzoyl-piperidine-1-carboxylic acid (4-cyano-phenyl)-methyl-amide], the IC50 is under 300 nM in assay [1], 0.3 to 3 µM in assay [2], under 300 nM in assay [3] and 300 to 3000 nM in assay [4]. In addition, the EC50 in the assay with Tankyrase fell in the range of 3e-07 to 3e-06 M.
Take `CN(C(=O)N1CCC(C(=O)c2ccccc2)CC1)c1cccc(F)c1` [Compound A12, 4-benzoyl-piperidine-1-carboxylic acid (3-fluoro-phenyl)-methyl-amide]: the half-maximal inhibitory concentration (IC50) was under 300 nM in assay [1], 0.3 to 3 µM in assay [2], under 300 nM in assay [3] and 300 to 3000 nM in assay [4]. Besides, in the assay with Tankyrase, the EC50 was in the range of 3e-07 to 3e-06 M.
With `O=C(c1cccc(F)c1)C1CCN(C(=O)N2CCc3ccccc32)CC1` [Compound A19, (2,3-dihydro-indol-1-yl)-[4-(3-fluoro-benzoyl)-piperidin-1-yl]-methanone], the 50% inhibitory concentration (IC50) in assay [1] is under 300 nM; in assay [2], 0.3 to 3 µM; in assay [3], under 300 nM; in assay [4], 300 to 3000 nM. For the same compound, the EC50 with Tankyrase fell in the range of 3e-06 to 5e-05 M.
`O=C(c1ccc(F)cc1)C1CCN(C(=O)N2CCc3ccccc32)CC1` [Compound A20, (2,3-dihydro-indol-1-yl)-[4-(4-fluoro-benzoyl)-piperidin-1-yl]-methanone]: the half-maximal inhibitory concentration (IC50) in assay [1] was under 300 nM; in assay [2], 0.3 to 3 µM; in assay [3], under 300 nM; in assay [4], 300 to 3000 nM. Moreover, in the assay with Tankyrase, the EC50 lay within 3e-06 to 5e-05 M.
On to `O=C(c1ccc(Cl)cc1)C1CCN(C(=O)N2CCc3ccccc32)CC1` [Compound A21, [4-(4-chloro-benzoyl)-piperidin-1-yl]-(2,3-dihydro-indol-1-yl)-methanone], for which the half-inhibitory concentration (IC50) in assay [1] is under 300 nM; in assay [2] it was 0.3 to 3 µM; in assay [3], 300 to 3000 nM; in assay [4], 300 to 3000 nM. The EC50 in the assay on Tankyrase is 3e-06 to 5e-05 M.
As for `O=C(c1ccccc1)C1CCN(C(=O)N2CCCc3ccccc32)CC1` [Compound A22, (4-benzoyl-piperidin-1-yl)-(3,4-dihydro-2H-quinolin-1-yl)-methanone], the IC50 lay in the range of 300 to 3000 nM in assay [1], 3 to 50 µM in assay [2], 300 to 3000 nM in assay [3] and 3000 to 50000 nM in assay [4]. In addition, the EC50 in the assay on Tankyrase is 3e-06 to 5e-05 M.
`COc1ccc(N(C)C(=O)N2CCC(C(=O)c3ccc(OC)c(C)c3)CC2)cc1` [Compound A23, 4-(4-methoxy-3-methyl-benzoyl)-piperidine-1-carboxylic acid (4-methoxy-phenyl)-methyl-amide]: the IC50 in assay [1] was under 300 nM; in assay [2], 0.3 to 3 µM; in assay [3], under 300 nM; in assay [4], under 300 nM. Further, the EC50 in the assay on Tankyrase was under 3e-07 M.
For `COc1ccc(N(C)C(=O)N2CCC(C(=O)c3ccc(OC)c(F)c3)CC2)cn1` [Compound A42, 4-(3-fluoro-4-methoxy-benzoyl)-N-(6-methoxy-3-pyridyl)-N-methyl-piperidine-1-carboxamide], the half-maximal inhibitory concentration (IC50) in assay [1] was under 300 nM; in assay [2] it was 0.3 to 3 µM; in assay [3] it was under 300 nM; in assay [4], under 300 nM. In the assay with Tankyrase, the EC50 is under 3e-07 M.
With `COc1ccc(N(C)C(=O)N2CCC(C(=O)c3cccc(C)c3)CC2)cn1` [Compound A45, N-(6-methoxy-3-pyridyl)-N-methyl-4-(3-methylbenzoyl)piperidine-1-carboxamide], the IC50 was under 300 nM in assay [1], 0.3 to 3 µM in assay [2], under 300 nM in assay [3] and 300 to 3000 nM in assay [4]. Further, the concentration giving a half-maximal response (EC50) in the assay with Tankyrase is under 3e-07 M.
